Measurements taken from article PMC8920107 (ADMET & DMPK, 2020).
Values joined by “and” are separate entries in the source; they are usually repeats but may differ in a detail not shown here. Equal values may be shown once. Read-outs that look alike come from different tables or passages of the source.

Key:
[1] = set-up: method as in PMID 11472245; conditions: calibration set of compounds, predefined values; cited from earlier work
[2] = Phospholipid binding at pH 7.4 on Immobilized Artificial Membrane (IAM) HPLC column; type: physicochemical; conditions: pH 7.4, standard 6 min protocol
Description: The phospholipid-binding was measured using an IAM PC.DD2 column with dimensions of 100 x 4.6 mm (Regis Technologies Inc., Morton Grove, IL, USA). The gradient retention times of the compounds were measured using a 50 mM ammonium acetate starting mobile phase with the pH adjusted to 7.4. The mobile phase flow rate was 1.5 mL/min. […] The cycle time was 6 min plus an additional 1 min equilibration time was applied while the injector prepared for the next injection. The gradient retention times were calibrated with the acetophenone homologues for which the CHI IAM values have been established using isocratic measurements [26]. The Chromatographic Hydrophobicity Index on the IAM column [CHI(IAM)] approximates to the acetonitrile concentration in the mobile phase when the compound elutes. CHI(IAM) values above 45 indicate strong phospholipid binding. Repeating the retention time measurements provided the error only in the third digit of the minute (±0.005).

[3] = biological target: human serum albumin (HSA) (Homo sapiens, UniProt P02768); assay: Albumin binding by biomimetic HPLC on Chiralpak HSA column; conditions: for fraction unbound: human, Chiralpak HSA HPLC column (immobilised human serum albumin), pH 7.4; for % HSA bound: standard 6 min IPA gradient up to 35 %, pH 7.4, racemate; for log k (HSA): standard 6 min IPA gradient, racemate; for calculated % binding, HSA 5 % IPA: isocratic 5 % IPA, partial calibration set; for calculated % binding, HSA 15 % IPA: isocratic 15 % IPA
Sequence of human serum albumin (HSA) (P02768 25-609): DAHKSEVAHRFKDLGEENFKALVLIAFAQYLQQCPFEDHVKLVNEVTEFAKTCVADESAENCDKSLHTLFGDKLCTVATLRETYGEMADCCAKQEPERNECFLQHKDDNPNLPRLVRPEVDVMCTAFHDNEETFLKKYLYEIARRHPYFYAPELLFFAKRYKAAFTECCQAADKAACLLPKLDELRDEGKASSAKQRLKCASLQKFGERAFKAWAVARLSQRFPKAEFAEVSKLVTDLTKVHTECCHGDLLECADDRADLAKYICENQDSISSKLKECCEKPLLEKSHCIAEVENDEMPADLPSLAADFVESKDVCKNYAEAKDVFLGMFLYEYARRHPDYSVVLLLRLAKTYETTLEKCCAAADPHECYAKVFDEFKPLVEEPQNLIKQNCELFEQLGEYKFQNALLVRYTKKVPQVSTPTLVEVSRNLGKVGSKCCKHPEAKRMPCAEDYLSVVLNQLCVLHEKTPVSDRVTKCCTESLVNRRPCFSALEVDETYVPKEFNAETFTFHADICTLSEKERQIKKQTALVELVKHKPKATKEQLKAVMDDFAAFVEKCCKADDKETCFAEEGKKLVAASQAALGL
Description: (§1) The protein binding measurements were carried out on Chiralpak HSA and Chiralpak AGP columns with the dimensions of 3 x 50 mm with 5 um particle size stationary phase (Chiril Technologies Europe, France). The mobile phase was 50 mM ammonium acetate adjusted to pH 7.4 with a flow rate of 1.2 mL/min. […] The cycle time was 6 min with an additional 1 min re-equilibration time.
(§2) The cycle time was 8 min plus an additional 1 min re-equilibration time.

[4] = tested on: α-1-acid-glycoprotein (AGP); assay: Glycoprotein binding by biomimetic HPLC on Chiralpak AGP column; conditions: for % AGP bound: standard 6 min IPA gradient up to 35 %, pH 7.4, racemate; for calculated % binding, AGP 5 % IPA: isocratic 5 % IPA; for calculated % binding, AGP 5 % IPA / calculated % binding, AGP 8 % IPA / calculated % binding, AGP 15 % IPA: 1.2 mL/min; for calculated % binding, AGP 8 % IPA: isocratic 8 % IPA; for calculated % binding, AGP 15 % IPA: isocratic 15 % IPA
Description: as §1, §2

[5] = Human plasma protein binding by rapid equilibrium dialysis (RED); type: in vitro ADME; conditions: 100 % pooled human plasma, pH 7.4, 37 °C
Description: The test compounds were prepared in 100 % pooled human plasma. The measurement was performed using equilibrium dialysis with the two compartments separated by a semi-permeable membrane. The plasma solution was added to one side of the membrane while buffer (pH 7.4) was added to the other side. The system was allowed to reach equilibrium at 37 °C. Compound concentration on both sides of the membrane was measured by LC-MS/MS, and the fraction of unbound compound calculated. Calibration standards were prepared in plasma and buffer. Test compound incubations were performed in triplicate. A control compound was included in each experiment. The solutions for each batch of compounds were combined into two groups (protein-free and protein-containing). Cassette analysed by LC-MS/MS using two sets of calibration standards for protein-free solutions (7 points) and protein-containing solutions (7 points). The experiments were carried out at Cyprotex Discovery Ltd (UK) and repeated at Sygnature Discovery Ltd (UK) laboratories using their generic LC/MS method. The unbound fraction (fu) is calculated from the concentration of the test compound in the protein-containing side Cp and the protein-free side Cf based on the formula: […]

[6] = Estimated total plasma protein binding from biomimetic HPLC data (model equation); conditions: from % HSA, % AGP and lipophilicity, standard 6 min protocol; for fraction unbound: human, read-out: Estimated % plasma protein binding (PPB) (converted)
From the text: (§3) Thus, the regression coefficients in linear regression analysis are meaningful and reflect to the physiological proportion of the albumin and phospholipids in the body. […] They are based on the calibrated retention times obtained on C-18, IAM, Chiralpak HSA and Chiralpak AGP columns.

[7] = Estimated brain tissue binding and brain to blood ratio from biomimetic HPLC data (model equations); conditions: standard 6 min protocol data; for %BTB: brain tissue binding; for Kp at 0.1 h: read-out: Brain to plasma
From the text: as §3

[8] = Estimated lung tissue binding from biomimetic HPLC data (model equation); conditions: standard 6 min protocol data
From the text: as §3

[9] = Estimated volume of distribution, unbound volume of distribution and drug efficiency from biomimetic HPLC data; conditions: standard 6 min protocol data
From the text: as §3

[10] = cited from earlier work
[11] = cited from earlier work; remark: listed apart in the source
AGP [12] = conditions: cited from earlier work
[13] = both in animals and in human; cited from earlier work
HSA [14] = tested on: HSA
HSA [15] = conditions: cited from earlier work; for % HSA: calibration drugs, equilibrium dialysis literature % binding
AGP [16] = assay: Literature AGP binding by equilibrium dialysis
[17] = Chromatographic Hydrophobicity Index (CHI) lipophilicity at three pHs, C-18 gradient HPLC; type: physicochemical
Description: Gemini NX C-18(2) 5 um columns with dimensions of 3 x 50 mm (Phenomenex Ltd. Macclesfield, UK) were used for the determination of the Chromatographic Hydrophobicity Index (CHI) and the CHIlogD values. […] An acetonitrile linear gradient was used from 0 to 100 %. The acetonitrile concentration reached 100 % in 3.5 min. The 100 % acetonitrile mobile phase was maintained for an additional 1 min before it was returned to 0 % at 4.7 min. The cycle time of the gradient run was 6 min, with an additional equilibration time of 1 min before the next injection. The error in the retention time measurements is ±0.005 min in general after repeated injections.

[18] = Estimated cell partition coefficient from IAM binding (model equation); conditions: standard 6 min protocol data
From the text: as §3

[19] = Phospholipidotic potential (CAD-likeness) from CHI values; conditions: CHI (IAM) + (CHI at pH 10.5 – CHI at pH 7.4)
[20] = calibration compounds, literature value, no reference given; cited from earlier work
[21] = calibration drugs, equilibrium dialysis literature % binding

CC(=O)c1ccccc1 [Acetophenone]
CHI at pH 2.6 [1]: 64.1 | CHI at pH 7.4 [1]: 65.1 | CHI at pH 10.5 [1]: 64.1

c1ccc2[nH]cnc2c1 [Benzimidazole]
CHI at pH 2.6 [1]: 6.3 | CHI at pH 7.4 [1]: 34.3 | CHI at pH 10.5 [1]: 30.6

CCCC(=O)c1ccccc1 [Butyrophenone]
CHI at pH 2.6 [1]: 87.3 | CHI at pH 7.4 [1]: 87.5 | CHI at pH 10.5 [1]: 87.3

CCN(CC)CCCC(C)Nc1ccnc2cc(Cl)ccc12 (stereo not drawn) [CQ, Chloroquine]
log k (IAM) [2]: 2.6 | fraction unbound [3]: 0.178 | % HSA bound [3]: 87% and 87.6% | log k (HSA) [3]: 0.8 | % AGP bound [4]: 88.8% | fraction unbound [5]: 0.474 | Estimated % plasma protein binding (PPB) [6]: 94.8% | fraction unbound [6]: 0.05 | %BTB [7]: 98.4% | Kp at 0.1 h [7]: 3.4 | % LTB [8]: 96.3% | Vd [9]: 6.9 L/kg | Vdu [9]: 56.1 L/kg | Measured log I (ChemSpider) [10]: 2.68-4.63 | volume of distribution described in the literature [11]: over 100 L/kg | % AGP bound (AGP [12]): 48.4% | phospholipidosis [13]: causes phospholipidosis

NC(=O)N1c2ccccc2C=Cc2ccccc21 [Carbamazepine]
log k (HSA) (HSA [14]): 0.5 | % HSA (HSA [15]): 75.0% | % AGP (AGP [12]; [21]): 65% | log k (AGP) (AGP [16]): 0.3

COc1cc2c(c(OC)c1OC)-c1ccc(OC)c(=O)cc1[C@@H](NC(C)=O)CC2 [Colchicine]
CHI at pH 2.6 [1]: 43.9 | CHI at pH 7.4 [1]: 45.0 | CHI at pH 10.5 [1]: 43.9

O=C(O)Cc1ccccc1Nc1c(Cl)cccc1Cl [Diclofenac]
log k (AGP) (AGP [16]): 0.2

CCN(CCO)CCCC(C)Nc1ccnc2cc(Cl)ccc12 (stereo not drawn) [HCQ, hydroxy-chloroquine]
chromatographic logD ([17]; Gemini NX C-18(2) HPLC column, pH 7.4, C-18 gradient HPLC, racemate not resolved, read-out: CHI log D (pH 7.4)): 0.66 | chromatographic logP ([17]; from pH 10.5 mobile phase, read-out: CHI log P): 2.13 | log k (IAM) [2]: 2.5 | fraction unbound [3]: 0.181 | % HSA bound [3]: 84.9% | log k (HSA) [3]: 0.7 | % AGP bound [4]: 89.0% | log k (AGP) ([4]; standard 6 min IPA gradient, racemate): 0.9 | fraction unbound [5]: 0.693 | Estimated % plasma protein binding (PPB) [6]: 93.4% | fraction unbound [6]: 0.07 | %BTB [7]: 97.6% | est log k BB [7]: 0.8 | Kp at 0.1 h [7]: 2.8 | % LTB [8]: 93.9% | Vd ([9]; human): 5.8 L/kg | Vd [9]: 5.1 L/kg | Vdu [9]: 38.8 L/kg | Kpcell [18]: 7.3 | Phospholipidotic potential (CAD-likeness) [19]: 73.6 | volume of distribution described in the literature [11]: over 100 L/kg | Vd ([11]; healthy volunteers): above 4000 L/kg | % HSA bound (HSA [15]; equilibrium dialysis method): 40% | % AGP bound (AGP [12]; equilibrium dialysis method): 34%

c1ccc2[nH]ccc2c1 [Indole]
CHI at pH 2.6 [1]: 72.1 | CHI at pH 7.4 [1]: 71.5 | CHI at pH 10.5 [1]: 72.1

COc1ccc2c(c1)c(CC(=O)O)c(C)n2C(=O)c1ccc(Cl)cc1 [Indomethacin]
log k (HSA) (HSA [14]): 1.8 | % AGP (AGP [12]; [21]): 56% | log k (AGP) (AGP [16]): 0.1

COC(=O)C1=C(C)NC(C)=C(C(=O)OCCN(C)Cc2ccccc2)C1c1cccc([N+](=O)[O-])c1 (stereo not drawn) [Nicardipine]
calculated % binding, HSA 5 % IPA ([3]; 1.2 mL/min): 6 (96 %) | calculated % binding, HSA 15 % IPA ([3]; 1.2 mL/min): 1.05 (95 %) | calculated % binding, AGP 5 % IPA [4]: >8 min (>98 %) | calculated % binding, AGP 8 % IPA [4]: 5.63 (98 %) | calculated % binding, AGP 15 % IPA [4]: 5.0 (96 %) | log k (HSA) (HSA [14]): 1.2 | % PPB (binds to plasma proteins) [20]: nicardipine (96 % PPB) | % AGP (AGP [12]; [21]): 87% | log k (AGP) (AGP [16]): 0.8

CNC(=C[N+](=O)[O-])NCCSCc1csc(CN(C)C)n1 [Nizatidine]
log k (HSA) (HSA [14]): -0.6 | % HSA (HSA [15]): 20.4% | % AGP (AGP [12]; [21]): 37.1% | log k (AGP) (AGP [16]): -0.2

CC(=O)Nc1ccc(O)cc1 [Paracetamol]
log k (HSA) (HSA [14]): -0.8 | % HSA (HSA [15]): 14.0% | % AGP (AGP [12]; [21]): 3.2% | log k (AGP) (AGP [16]): -1.5

c1ccc(-c2nn[nH]n2)cc1 [Phenyl tetrazole]
CHI at pH 2.6 [1]: 42.2 | CHI at pH 7.4 [1]: 23.6 | CHI at pH 10.5 [1]: 16.0

Cn1c(=O)c2nc(-c3ccccc3)[nH]c2n(C)c1=O [Phenyl theophylline]
CHI at pH 2.6 [1]: 51.7 | CHI at pH 7.4 [1]: 51.2 | CHI at pH 10.5 [1]: 51.3

CCC(=O)c1ccccc1 [Propiophenone]
CHI at pH 2.6 [1]: 77.4 | CHI at pH 7.4 [1]: 77.4 | CHI at pH 10.5 [1]: 77.4

CC(C)NCC(O)COc1cccc2ccccc12 (stereo not drawn) [Propranolol]
calculated % binding, HSA 5 % IPA ([3]; 1.2 mL/min): 0.76 (54 %) | calculated % binding, HSA 8 % IPA ([3]; isocratic 8 % IPA, 1.2 mL/min): 0.73 (57.6 %) | calculated % binding, HSA 15 % IPA ([3]; 1.2 mL/min): 0.58 (66 %) | calculated % binding, AGP 5 % IPA [4]: 2.78 (85 %) | calculated % binding, AGP 8 % IPA [4]: 1.73 (68 %) | calculated % binding, AGP 15 % IPA [4]: 1.58 (67 %) | log k (HSA) (HSA [14]): 0.3 | % PPB (binds to plasma proteins) [20]: propranolol (66 % PPB) | % HSA (HSA [15]): 66.6% | % AGP (AGP [12]; [21]): 86% | log k (AGP) (AGP [16]): 0.8

Cn1c(=O)c2[nH]cnc2n(C)c1=O [Theophylline]
CHI at pH 2.6 [1]: 17.9 | CHI at pH 7.4 [1]: 18.4 | CHI at pH 10.5 [1]: 5.0

COc1cc(Cc2cnc(N)nc2N)cc(OC)c1OC [Trimethoprim]
log k (HSA) (HSA [14]): -0.2 | % HSA (HSA [15]): 37.6% | % AGP (AGP [12]; [21]): 46.2% | log k (AGP) (AGP [16]): -0.1

CCCCC(=O)c1ccccc1 [Valerophenone]
CHI at pH 2.6 [1]: 96.4 | CHI at pH 7.4 [1]: 96.20 | CHI at pH 10.5 [1]: 96.36

CC(=O)CC(c1ccccc1)c1c(O)c2ccccc2oc1=O (stereo not drawn) [Warfarin]
log k (HSA) (HSA [14]): 1.5 | % AGP (AGP [12]): 83.2% | log k (AGP) (AGP [16]): 0.7
